# Molecular target: T1, mGlyT-1b (Mus musculus, UniProt P28571)
# T1 construct: host or cells: Flp-In CHO
# T1 sequence (P28571 1-651 isoform P28571-2): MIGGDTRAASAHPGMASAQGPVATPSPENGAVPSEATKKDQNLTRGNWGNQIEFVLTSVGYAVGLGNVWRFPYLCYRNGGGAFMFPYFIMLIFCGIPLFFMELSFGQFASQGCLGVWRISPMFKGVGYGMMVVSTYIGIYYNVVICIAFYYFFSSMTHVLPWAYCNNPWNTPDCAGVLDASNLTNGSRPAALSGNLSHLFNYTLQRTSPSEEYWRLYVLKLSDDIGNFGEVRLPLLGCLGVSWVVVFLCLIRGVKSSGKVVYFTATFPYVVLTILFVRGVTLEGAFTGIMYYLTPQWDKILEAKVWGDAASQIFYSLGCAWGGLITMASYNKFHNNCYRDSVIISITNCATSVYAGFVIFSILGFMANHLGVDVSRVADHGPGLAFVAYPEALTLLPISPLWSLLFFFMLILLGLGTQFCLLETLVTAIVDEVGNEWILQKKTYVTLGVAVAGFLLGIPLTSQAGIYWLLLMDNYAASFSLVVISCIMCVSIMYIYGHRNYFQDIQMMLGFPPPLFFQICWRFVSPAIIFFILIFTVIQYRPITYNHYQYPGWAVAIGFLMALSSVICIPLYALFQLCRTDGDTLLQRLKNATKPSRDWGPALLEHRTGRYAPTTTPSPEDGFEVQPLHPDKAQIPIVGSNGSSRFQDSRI
# Assay: Glycine uptake inhibition assay (mGlyT-1b)
# Format: cell-based
# Conditions: [3H]-glycine uptake in Flp-In CHO cells transfected with mGlyT-1b cDNA
# Procedure: DMEM complete medium: Nutrient mixture F-12 (Gibco Life-technologies), fetal bovine serum (FBS) 5%, (Gibco life technologies), Penicillin/Streptomycinl % (Gibco life technologies), Hygromycin 0.6 mg/ml (Gibco life technologies), Glutamine 1 mM Gibco life technologies)
# Uptake buffer (UB): 150 mM NaCl, 10 mM Hepes-Tris, pH 7.4, 1 mM CaCl2, 2.5 mM KCl, 2.5 mM MgSO4, 10 mM (+) D-glucose.
# Flp-In™ CHO (Invitrogen Cat no R758-07) cells stably transfected with mGlyTlb cDNA.
# Glycine uptake inhibition assay (mGlyT-1b)
# On day 1 mammalian cells, (Flp-In™ CHO), transfected with mGlyT-1b cDNA, were plated at the density of 40,000 cells/well in complete F-12 medium, without hygromycin in 96-well culture plates. On day 2, the medium was aspirated and the cells were washed twice with uptake buffer (UB). The cells were then incubated for 20 min at 22° C. with either (i) no potential competitor, (ii) 10 mM non-radioactive glycine, (iii) a concentration of a potential inhibitor. A range of concentrations of the potential inhibitor was used to generate data for calculating the concentration of inhibitor resulting in 50% of the effect (e.g. IC50, the concentration of the competitor inhibiting glycine uptake of 50%). A solution was then immediately added containing [^3H]-glycine 60 nM (11-16 Ci/mmol) and 25 μM non-radioactive glycine. The plates were incubated with gentle shaking and the reaction was stopped by aspiration of the mixture and washing (three times) with ice-cold UB. The cells were lysed with scintillation liquid, shaken 3 hours and the radioactivity in the cells was counted using a scintillation counter.
row,Compound,IC50 [nM]
1,"COc1cc(C(F)(F)F)cc(SC)c1C(=O)N[C@]1(c2ccccc2)CCCN2CCCC[C@@H]21 (racemic) [Example 1, 2-Methoxy-6-methylsulfanyl-N-((1S,R; 9aR,S)-1-phenyl-octahydro-quinolizin-1-yl)-4-trifluoromethyl-benzamide]",80
2,"COc1cc(C(F)(F)F)cc(SC)c1C(=O)N[C@]1(c2ccccc2)CCCN2CCC[C@@H]21 (racemic) [Example 2, 2-Methoxy-6-methylsulfanyl-N-((8S,R; 8aR,S)-8-phenyl-octahydro-indolizin-8-yl)-4-trifluoromethyl-benzamide]",25
3,"COc1cc(C(F)(F)F)cc(SC)c1C(=O)NC1(c2ccccc2)CCC2CCCCN2C1 (centres unmarked) [Example 5, 2-Methoxy-6-methylsulfanyl-N-(3-phenyl-octahydro-quinolizin-3-yl)-4-trifluoromethyl-benzamide]",28

# Now those with a lower IC50, led by results:
row,IC50 [nM],Compound
1,17,"COc1cc(C(F)(F)F)cc(SC)c1C(=O)NC1(c2ccccc2)CCC2CCCN2C1 (single isomer, unassigned; diastereoisomer 1) [Example 3, 2-Methoxy-6-methylsulfanyl-N-(6-phenyl-octahydro-indolizin-6-yl)-4-trifluoromethyl-benzamide (diastereoisomer 1)]"
2,13,"COc1cc(C(F)(F)F)cc(SC)c1C(=O)NC1(c2ccccc2)CCC2CCCN2C1 (single isomer, unassigned; diastereoisomer 2) [Example 4, 2-Methoxy-6-methylsulfanyl-N-(6-phenyl-octahydro-indolizin-6-yl)-4-trifluoromethyl-benzamide (diastereoisomer 2)]"
